The results in this text go back to patent US10336775B2 (Asceneuron SA, priority 2014, dated 2019).

pIC50: −log10 of the molar value. Where two headings read alike, the source gives them in different places.

The target in this assay is His-Tagged hOGA (human O-GlcNAcase) (Homo sapiens (Human), UniProt O60502). Put plainly: Human O-GlcNAcase enzyme inhibition assay (Example B01). The class given is biochemical. Particulars: for IC50: OGA enzyme inhibition assay, activity range classes defined in μM; for OGA inhibitor activity (in words): measured according to Example B01.
His-Tagged hOGA (human O-GlcNAcase), sequence (O60502 whole entry): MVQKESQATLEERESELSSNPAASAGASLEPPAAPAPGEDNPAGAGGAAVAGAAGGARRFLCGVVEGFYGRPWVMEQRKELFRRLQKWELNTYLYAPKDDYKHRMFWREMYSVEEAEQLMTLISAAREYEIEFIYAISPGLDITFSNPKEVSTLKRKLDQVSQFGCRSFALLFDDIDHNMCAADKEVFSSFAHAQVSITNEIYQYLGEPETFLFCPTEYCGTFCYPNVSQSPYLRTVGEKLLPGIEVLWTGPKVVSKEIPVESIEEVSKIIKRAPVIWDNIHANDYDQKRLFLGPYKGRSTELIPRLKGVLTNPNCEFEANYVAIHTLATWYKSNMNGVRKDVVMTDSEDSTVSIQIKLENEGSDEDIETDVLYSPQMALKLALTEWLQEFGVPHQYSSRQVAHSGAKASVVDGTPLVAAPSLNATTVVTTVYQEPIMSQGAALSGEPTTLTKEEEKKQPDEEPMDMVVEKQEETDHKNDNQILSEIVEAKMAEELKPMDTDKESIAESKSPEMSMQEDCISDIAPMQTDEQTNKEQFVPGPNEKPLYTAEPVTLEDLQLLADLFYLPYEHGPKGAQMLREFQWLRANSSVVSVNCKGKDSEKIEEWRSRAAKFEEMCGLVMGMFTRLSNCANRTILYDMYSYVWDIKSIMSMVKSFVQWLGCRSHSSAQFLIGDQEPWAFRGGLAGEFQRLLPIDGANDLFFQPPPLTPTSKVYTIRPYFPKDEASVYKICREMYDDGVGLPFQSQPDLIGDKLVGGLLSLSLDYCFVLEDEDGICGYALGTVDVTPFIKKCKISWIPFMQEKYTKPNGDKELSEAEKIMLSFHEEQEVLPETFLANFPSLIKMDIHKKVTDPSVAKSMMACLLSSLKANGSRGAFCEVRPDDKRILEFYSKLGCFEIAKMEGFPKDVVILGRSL

For the compound `CC(=O)Nc1cnc(N2CCN(C(C)c3ccc4sc(C)nc4c3)CC2)nc1` (racemic) [Example 169, N-(2-(4-(1-(2-methylbenzo[d]thiazol-5-yl)ethyl)piperazin-1-yl)pyrimidin-5-yl)acetamide], where the note is “read-out: OGA IC50”, the half-inhibitory concentration (IC50) was less than 0.05 µM. Take `CC(=O)Nc1nnc(N2CCN(C(C)c3ccc4sc(C)nc4c3)CC2)s1` (racemic) [Example 170, N-(5-(4-(1-(2-methylbenzo[d]thiazol-5-yl)ethyl)piperazin-1-yl)-1,3,4-thiadiazol-2-yl)acetamide]: the IC50 (read-out: OGA IC50) was less than 0.05 µM. In the case of `CC(c1ccc2nccnc2c1)N1CCN(c2ncc(F)cn2)CC1` (racemic) [Example 172, 6-(1-(4-(5-fluoropyrimidin-2-yl)piperazin-1-yl)ethyl)quinoxaline], the IC50 (read-out: OGA IC50) is 0.05 to 0.2 µM. For the compound `CC(=O)Nc1cnc(N2CCN(C(C)c3ccc4ncsc4c3)CC2)nc1` (racemic) [Example 174, N-(2-(4-(1-(benzo[d]thiazol-6-yl)ethyl)piperazin-1-yl)pyrimidin-5-yl)acetamide], for the setting “read-out: OGA IC50”, the IC50 fell in the range of 1 to 10 µM. Turning to `CC(c1ccc2nccnc2c1)N1CCN(c2nc3c(s2)C(=O)NCC3)CC1` (racemic) [Example 178, 2-(4-(1-(quinoxalin-6-yl)ethyl)piperazin-1-yl)-6,7-dihydrothiazolo[5,4-c]pyridin-4(5H)-one], the IC50 (read-out: OGA IC50) was in the range of 0.2 to 1 µM.

Regarding `CC(=O)Nc1nnc(N2CCN(C(C)c3ccc4ncsc4c3)CC2)s1` (racemic) [Example 179, N-(5-(4-(1-(benzo[d]thiazol-6-yl)ethyl)piperazin-1-yl)-1,3,4-thiadiazol-2-yl)acetamide], the IC50 (read-out: OGA IC50) lay in the range of 1 to 10 µM. As to `COc1cnc(N2CCN(C(C)c3ccc4nccnc4c3)CC2)nc1` (racemic) [Example 196], the IC50 (read-out: OGA IC50) was in the range of 0.05 to 0.2 µM. Turning to `COc1nc(N2CCN(C(C)c3ccc4c(c3)OCCO4)CC2)ccc1Br` (racemic) [Example 199], the IC50 (read-out: OGA IC50) was 0.05 to 0.2 µM. Regarding `COc1cccc(N2CCN(C(C)c3ccc4c(c3)OCCO4)CC2)n1` (racemic) [Example 200], the IC50 (read-out: OGA IC50) fell in the range of 0.05 to 0.2 µM. On the same count and under the same terms, the result for `Cc1cnc2cc(C(C)N3CCN(c4ncccn4)CC3)ccc2c1` (racemic) [Example 201, 3-Methyl-7-(1-(4-(pyrimidin-2-yl)piperazin-1-yl)ethyl)quinoline] reads 1 to 10 µM. For the compound `CC(c1ccc2c(c1)OCCO2)N1CCN(c2ncccn2)CC1` (single isomer, unassigned) [Example 34], the “OGA inhibitor activity (in words)” value is “very potent OGA inhibitors”.

`CNC(=O)c1csc(N2CCN(C(C)c3ccc4c(c3)OCO4)CC2)n1` (single isomer, unassigned) [Example 56]: the “OGA inhibitor activity (in words)” value is on record as “very potent OGA inhibitors”.

Where the note is “OGA IC50 (M)”, `CC(c1ccc2c(c1)OCO2)N1CCN(c2ncc(C(=O)N(C)C)s2)CC1` (single isomer, unassigned) [Example 61, (R)-2-(4-(1-(benzo[d][1,3]dioxol-5-yl)ethyl)piperazin-1-yl)-N,N-dimethylthiazole-5-carboxamide or (S)-2-(4-(1-(benzo[d][1,3]dioxol-5-yl)ethyl)piperazin-1-yl)-N,N-dimethylthiazole-5-carboxamide] came in with an IC50 of 0.05 to 0.2 µM. With `CC(c1ccc2c(c1)OCCO2)N1CCN(c2ncc(C(=O)N3CCN(C)CC3)s2)CC1` (single isomer, unassigned) [Example 75], the “OGA inhibitor activity (in words)” value is on record as “very potent OGA inhibitors”.

For the compound `CC(=O)Nc1cnc(N2CCN(C(C)c3ccc4c(c3)OCO4)CC2)nc1` (single isomer, unassigned) [Example 78], under “OGA IC50 (M)”, the IC50 was less than 0.05 µM. Under “OGA IC50 (M)”, `CC(c1ccc2cccnc2c1)N1CCN(c2ncccn2)CC1` (single isomer, unassigned) [Example 95, (S)-7-(1-(4-(pyrimidin-2-yl)piperazin-1-yl)ethyl)quinolone or (R)-7-(1-(4-(pyrimidin-2-yl)piperazin-1-yl)ethyl)quinoline] had an IC50 of 0.05 to 0.2 µM. In the case of `CC(=O)Nc1nnc(N2CCN(C(C)c3ccc4scnc4c3)CC2)s1` (single isomer, unassigned) [Example 133, (S)-N-(5-(4-(1-(benzo[d]thiazol-5-yl)ethyl)piperazin-1-yl)-1,3,4-thiadiazol-2-yl)acetamide or ((R)-N-(5-(4-(1-(benzo[d]thiazol-5-yl)ethyl)piperazin-1-yl)-1,3,4-thiadiazol-2-yl)acetamide], the IC50 (read-out: OGA IC50) is less than 0.05 µM. For `CC(O)c1cnc(N2CCN([C@@H](C)c3ccc4c(c3)OCO4)CC2)nc1` (single isomer, unassigned) [Example 197], under “read-out: OGA IC50”, the IC50 was less than 0.05 µM. The compound `CC(c1ccc2c(c1)OCO2)N1CCN(c2ccc([N+](=O)[O-])cn2)CC1` (stereo not drawn) [Example 55, 1-(1-(benzo[d][1,3]dioxol-5-yl)ethyl)-4-(5-nitropyridin-2-yl)piperazine] showed a pIC50 of 6.70 to 7.30. With `C[C@@H](c1ccc2c(c1)OCO2)N1CCN(c2nnc(N)s2)CC1` [Example 132, (S)-5-(4-(1-(benzo[d][1,3]dioxol-5-yl)ethyl)piperazin-1-yl)-1,3,4-thiadiazol-2-amine], the “OGA inhibitor activity (in words)” value is “very potent OGA inhibitors”. The IC50 (read-out: OGA IC50) is less than 0.05 µM. Take `CNC(=O)c1cnc(N2CCN([C@@H](C)c3ccc4c(c3)OCO4)CC2)nc1` [Example 134, (S) 2-(4-(1-(benzo[d][1,3]dioxol-5-yl)ethyl)piperazin-1-yl)-N-methylpyrimidine-5-carboxamide]: the “OGA inhibitor activity (in words)” value is on record as “very potent OGA inhibitors”. Further, where the note is “read-out: OGA IC50”, the IC50 was less than 0.05 µM. As for `C[C@@H](c1ccc2c(c1)OCO2)N1CCN(c2nc3ccccc3s2)CC1` [Example 136, (S)-2-(4-(1-(benzo[d][1,3]dioxol-5-yl)ethyl)piperazin-1-yl)benzo[d]thiazole], under “read-out: OGA IC50”, the IC50 is 0.2 to 1 µM. As to `C[C@@H](c1ccc2c(c1)OCO2)N1CCN(c2ncc(C(=O)N(C)C)cn2)CC1` [Example 137, (S)-2-(4-(1-(benzo[d][1,3]dioxol-5-yl)ethyl)piperazin-1-yl)-N,N-dimethylpyrimidine-5-carboxamide], the “OGA inhibitor activity (in words)” value is on record as “very potent OGA inhibitors”. In addition, the 50% inhibitory concentration (IC50) (read-out: OGA IC50) was less than 0.05 µM. As for `C[C@@H](c1ccc2c(c1)OCO2)N1CCN(c2nc3ccccc3[nH]2)CC1` [Example 138, (S)-2-(4-(1-(benzo[d][1,3]dioxol-5-yl)ethyl)piperazin-1-yl)-1H-benzo[d]imidazole], the IC50 (read-out: OGA IC50) is 1 to 10 µM. Consider `C[C@@H](c1ccc2c(c1)OCO2)N1CCN(c2nc3cnccc3s2)CC1` [Example 139, (S)-2-(4-(1-(benzo[d][1,3]dioxol-5-yl)ethyl)piperazin-1-yl)thiazolo[4,5-c]pyridine], for which the IC50 (read-out: OGA IC50) fell in the range of 0.05 to 0.2 µM. `CCNc1nnc(N2CCN([C@@H](C)c3ccc4c(c3)OCO4)CC2)s1` [Example 141, (S)-5-(4-(1-(benzo[d][1,3]dioxol-5-yl)ethyl)piperazin-1-yl)-N-ethyl-1,3,4-thiadiazol-2-amine]: the IC50 (read-out: OGA IC50) lay in the range of 0.05 to 0.2 µM. Take `CCCNc1nnc(N2CCN([C@@H](C)c3ccc4c(c3)OCO4)CC2)s1` [Example 142, (S)-5-(4-(1-(benzo[d][1,3]dioxol-5-yl)ethyl)piperazin-1-yl)-N-propyl-1,3,4-thiadiazol-2-amine]: the IC50 (read-out: OGA IC50) was 0.05 to 0.2 µM. For the compound `C[C@@H](c1ccc2c(c1)OCO2)N1CCN(c2ccc(C(F)(F)F)cn2)CC1` [Example 166, (S)-1-(1-(benzo[d][1,3]dioxol-5-yl)ethyl)-4-(5-(trifluoromethyl)pyridin-2-yl)piperazine], the IC50 (read-out: OGA IC50) is 0.05 to 0.2 µM. As for `CC(=O)c1cnc(N2CCN([C@@H](C)c3ccc4c(c3)OCO4)CC2)nc1` [Example 167, (S)-1-(2-(4-(1-(benzo[d][1,3]dioxol-5-yl)ethyl)piperazin-1-yl)pyrimidin-5-yl)ethan-1-one], under “read-out: OGA IC50”, the IC50 was less than 0.05 µM. For the compound `CC(O)c1cnc(N2CCN([C@@H](C)c3ccc4c(c3)OCO4)CC2)nc1` (stereo partly drawn) [Example 168, 1-(2-(4-((S)-1-(benzo[d][1,3]dioxol-5-yl)ethyl)piperazin-1-yl)pyrimidin-5-yl)ethan-1-ol], the “OGA inhibitor activity (in words)” value is given as “very potent OGA inhibitors”. Moreover, the IC50 (read-out: OGA IC50) is less than 0.05 µM. As for `C[C@@H](c1ccc2c(c1)OCO2)N1CCN(c2nnc(NC(=O)CCO)s2)CC1` [Example 171], under “read-out: OGA IC50”, the IC50 was less than 0.05 µM. For the compound `C[C@@H](c1ccc2c(c1)OCO2)N1CCN(c2ncc(F)cn2)CC1` [Example 173, (S)-2-(4-(1-(benzo[d][1,3]dioxol-5-yl)ethyl)piperazin-1-yl)-5-fluoropyrimidine], the “OGA inhibitor activity (in words)” value is “very potent OGA inhibitors”. In addition, the IC50 (read-out: OGA IC50) is less than 0.05 µM.

Turning to `C[C@@H](c1ccc2c(c1)OCO2)N1CCN(c2ncc(Br)cn2)CC1` [Example 175, (S)-2-(4-(1-(benzo[d][1,3]dioxol-5-yl)ethyl)piperazin-1-yl)-5-bromopyrimidine], where the note is “read-out: OGA IC50”, the IC50 was less than 0.05 µM. With `C[C@@H](c1ccc2c(c1)OCO2)N1CCN(c2ncc(C(C)(C)O)cn2)CC1` [Example 176, (S)-2-(2-(4-(1-(benzo[d][1,3]dioxol-5-yl)ethyl)piperazin-1-yl)pyrimidin-5-yl)propan-2-ol], the “OGA inhibitor activity (in words)” value was “very potent OGA inhibitors”. For the setting “read-out: OGA IC50”, the IC50 is less than 0.05 µM.

For the compound `C[C@@H](c1ccc2c(c1)OCO2)N1CCN(c2ncc(NC(=O)CCO)cn2)CC1` [Example 177, (S)-N-(2-(4-(1-(benzo[d][1,3]dioxol-5-yl)ethyl)piperazin-1-yl)pyrimidin-5-yl)-3-hydroxypropanamide], the IC50 (read-out: OGA IC50) was less than 0.05 µM. In the case of `C[C@@H](c1ccc2c(c1)OCO2)N1CCN(c2ncc(C3(O)CCCCC3)cn2)CC1` [Example 180, (S)-1-(2-(4-(1-(benzo[d][1,3]dioxol-5-yl)ethyl)piperazin-1-yl)pyrimidin-5-yl)cyclohexan-1-ol], the “OGA inhibitor activity (in words)” value was “very potent OGA inhibitors”. For the same compound, the IC50 (read-out: OGA IC50) was less than 0.05 µM. For `C[C@@H](c1ccc2c(c1)OCO2)N1CCN(c2ncc(C3(O)CCCC3)cn2)CC1` [Example 181, (S)-1-(2-(4-(1-(benzo[d][1,3]dioxol-5-yl)ethyl)piperazin-1-yl)pyrimidin-5-yl)cyclopentan-1-ol], the “OGA inhibitor activity (in words)” value is listed as “very potent OGA inhibitors”. Moreover, under “read-out: OGA IC50”, the IC50 is less than 0.05 µM.
